Reference: PubChem BioAssay (NCI)
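Cells were grown in 96-well plates and exposed to each compound for 48 hours at five concentrations; endpoints were interpolated linearly between bracketing concentrations, or set to the highest concentration if not reached. At the GI50, growth is halved. TGI marks complete inhibition of growth.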

Tests used:
Test in all cases: inhibition of tumour cell growth, NCI panel, 48 h
[1] = system: OVCAR-8 ovarian
[2] = system: UACC-257 melanoma
[3] = system: HT29 colon
[4] = system: HCC-2998 colon
[5] = system: SF-268 CNS
[6] = system: SK-MEL-28 melanoma
[7] = system: HOP-62 NSCLC
[8] = system: SF-539 CNS
[9] = system: M14 melanoma
[10] = system: MALME-3M melanoma

Compound: CC[C@@]1(O)C(=O)OCc2c1cc1n(c2=O)Cc2c-1nc1cc(F)c(C)c3c1c2[C@@H](NC(=O)CO)CC3
- GI50 [1]: 0.0132 µM
- TGI [1]: > 100 µM
- GI50 [2]: 0.047 µM
- TGI [2]: 1.02 µM
- GI50 [3]: 0.0512 µM
- GI50 [4]: 0.163 µM
- TGI [4]: 3.51 µM
- GI50 [5]: < 0.01 µM
- TGI [5]: 1.95 µM
- GI50 [6]: 0.176 µM
- TGI [6]: 4.56 µM
- GI50 [7]: < 0.01 µM
- TGI [7]: 2.14 µM
- GI50 [8]: < 0.01 µM
- TGI [8]: 0.0404 µM
- GI50 [9]: < 0.01 µM
- TGI [9]: 0.0957 µM
- GI50 [10]: 0.0304 µM
- TGI [10]: 1.08 µM

Compound: CCOc1ccc2c(c1)C(=O)c1c-2n(CCCN=[N+]=[N-])c(=O)c2cc([N+](=O)[O-])ccc12
- GI50 [1]: 11.9 µM
- TGI [1]: > 100 µM
- GI50 [2]: 96.4 µM
- TGI [2]: > 100 µM
- GI50 [3]: 21.4 µM
- TGI [3]: > 100 µM
- GI50 [4]: 19.1 µM
- TGI [4]: > 100 µM
- GI50 [5]: 1.42 µM
- TGI [5]: 38.4 µM
- GI50 [6]: 51.7 µM
- TGI [6]: > 100 µM
- GI50 [7]: 3 µM
- TGI [7]: 43.6 µM
- GI50 [8]: 3.88 µM
- TGI [8]: 19 µM
- GI50 [9]: 3.63 µM
- TGI [9]: > 100 µM
- GI50 [10]: 15.4 µM
- TGI [10]: 61.5 µM

Compound: COc1ncc(-c2ccc3nccc(C#CCCCCC(=O)NO)c3c2)cc1NS(=O)(=O)c1ccc(F)cc1F
- GI50 [1]: 0.131 µM
- TGI [1]: 4.08 µM
- GI50 [2]: 0.198 µM
- TGI [2]: 1.44 µM
- GI50 [3]: 0.055 µM
- TGI [3]: 10.5 µM
- GI50 [4]: 0.0758 µM
- TGI [4]: 4.26 µM
- GI50 [5]: 0.121 µM
- TGI [5]: 3.77 µM
- GI50 [6]: 0.0692 µM
- TGI [6]: 2.1 µM
- GI50 [7]: 0.125 µM
- TGI [7]: 10 µM
- GI50 [8]: 0.0689 µM
- TGI [8]: 1.34 µM
- GI50 [9]: 0.148 µM
- TGI [9]: 3.62 µM
- GI50 [10]: 0.0604 µM
- TGI [10]: 0.27 µM

Compound: O=C(Nc1cccc(-n2cc(-c3ccncc3)c(-c3ccc(Cl)c(O)c3)n2)c1)Nc1ccc(Cl)c(Cl)c1
- GI50 [1]: 1.21 µM
- TGI [1]: > 32.5 µM
- GI50 [2]: 0.93 µM
- TGI [2]: 3.16 µM
- GI50 [3]: 4.89 µM
- TGI [3]: > 32.5 µM
- GI50 [4]: 2.89 µM
- TGI [4]: 13.9 µM
- GI50 [5]: 1.49 µM
- TGI [5]: 10.9 µM
- GI50 [6]: 1.46 µM
- TGI [6]: 9.85 µM
- GI50 [7]: 2.08 µM
- TGI [7]: 17.6 µM
- GI50 [8]: 1.34 µM
- TGI [8]: 8.97 µM
- GI50 [9]: 1.18 µM
- TGI [9]: 6.97 µM
- GI50 [10]: 1.19 µM
- TGI [10]: 8.1 µM

Compound: COC(=O)[C@]12CC[C@@H](C)[C@H](C)[C@@H]1C1=CC[C@@H]3[C@@](C)(CC#N)C4=C(C[C@@]3(C)[C@]1(C)CC2)OC[C@]4(C)C=O
- GI50 [1]: 4.5 µM
- TGI [1]: > 100 µM
- GI50 [2]: 3.73 µM
- TGI [2]: 18.3 µM
- GI50 [3]: 5.85 µM
- TGI [3]: 41.5 µM
- GI50 [4]: 5.81 µM
- TGI [4]: 33 µM
- GI50 [5]: 4.38 µM
- TGI [5]: > 100 µM
- GI50 [6]: 4.11 µM
- TGI [6]: 21.3 µM
- GI50 [7]: 5 µM
- TGI [7]: 36.6 µM
- GI50 [8]: 2.96 µM
- TGI [8]: 16.6 µM
- GI50 [9]: 3.46 µM
- TGI [9]: 19.9 µM
- GI50 [10]: 4.76 µM
- TGI [10]: 27.8 µM

Compound: Fc1ccc(N=C2C=CC(=Nc3ccc(F)cc3)c3ccccc32)cc1
- TGI [1]: > 100 µM
- TGI [2]: > 100 µM
- TGI [3]: > 100 µM
- TGI [4]: > 100 µM
- TGI [5]: > 100 µM
- TGI [6]: > 100 µM
- TGI [7]: > 100 µM
- TGI [8]: > 100 µM
- TGI [9]: > 100 µM
- TGI [10]: > 100 µM

Compound: CN1C2(c3ccccc3)C(C(=O)c3ccccc3)=C(C(=O)c3ccccc3)C1(c1ccccc1)c1c(-c3ccccc3)sc(-c3ccccc3)c12
- TGI [1]: > 100 µM
- TGI [2]: > 100 µM
- TGI [3]: > 100 µM
- TGI [4]: > 100 µM
- TGI [5]: > 100 µM
- TGI [6]: > 100 µM
- TGI [7]: > 100 µM
- TGI [8]: > 100 µM
- TGI [9]: > 100 µM
- TGI [10]: > 100 µM
